According to ChEMBL document CHEMBL1127387, “Synthesis and structure-activity relationships of a series of penicillin-derived HIV proteinase inhibitors: heterocyclic ring systems containing P1' and P2' substituents” (J Med Chem, 1994):
pEC50, pIC50: −log10 of the molar value.

How the values were obtained:
[1] = biological target: Human immunodeficiency virus type 1 protease (Human immunodeficiency virus 1, UniProt Q72874); experiment: In vitro inhibitory activity against HIV proteinase
C8166 = experiment: Compound was tested for effective concentration against C8166 cell line; type: functional, cell-based; conditions: Homo sapiens
MT4 = experiment: Compound was tested for effective concentration against MT-4 cell line; type: functional, cell-based; conditions: Homo sapiens

| SMILES | pIC50 [1] | pEC50 (C8166) | pEC50 (MT4) |
| --- | --- | --- | --- |
| CC(C)(C)NC(=O)[C@H]1CN(C(=O)Oc2ccccc2)CCN1C[C@@H](O)CNC(=O)[C@@H]1N[C@@H](C(NC(=O)Cc2ccccc2)C(=O)NCc2ccccc2)SC1(C)C (stereo partly specified) | 7.09 |  |  |
| CC(C)(C)NC(=O)[C@@H]1C[C@@H](OC(C)(C)C)CN1CC(O)CNC(=O)[C@@H]1N[C@@H](C(NC(=O)Cc2ccccc2)C(=O)NCc2ccccc2)SC1(C)C (stereo partly specified) | 5.80 |  |  |
| CC(C)(C)NC(=O)[C@@H]1C[C@@H]2CCCC[C@@H]2CN1C[C@@H](O)[C@H](Cc1ccccc1)NC(=O)[C@H](CC(N)=O)NC(=O)c1ccc2ccccc2n1 |  | 8.70 | 8.70 |
| CN(C)c1ccc(CNC(=O)C(NC(=O)Cc2ccccc2)[C@@H]2N[C@@H](C(=O)NC[C@H](O)CN3C[C@H]4CCCC[C@H]4C[C@H]3C(=O)NC(C)(C)C)C(C)(C)S2)cc1 (stereo partly specified) | 7.59 | 6.57 | 6.28 |
| CC(C)(C)NC(=O)[C@@H]1CCCN1CC(O)CNC(=O)[C@@H]1N[C@@H](C(NC(=O)Cc2ccccc2)C(=O)NCc2ccccc2)SC1(C)C (stereo partly specified) [listing 1 of 2 here] | 5.51 |  |  |
| CCO[C@@H]1C[C@@H](C(=O)NC(C)(C)C)N(C[C@@H](O)CNC(=O)[C@@H]2N[C@@H](C(NC(=O)Cc3ccccc3)C(=O)NCc3ccccc3)SC2(C)C)C1 (stereo partly specified) | < 4.46 |  |  |
| CC(C)(C)NC(=O)[C@@H]1C[C@@H]2CCCC[C@@H]2CN1CC(O)CNC(=O)[C@@H]1N[C@@H](C(NC(=O)Cc2ccccc2)C(=O)NCCNC(=O)CCCC[C@@H]2SC[C@@H]3NC(=O)N[C@@H]32)SC1(C)C (stereo partly specified) | 6.92 |  | 4.74 |
| C[C@@H](C(=O)NC(C)(C)C)N(CC(O)CNC(=O)[C@@H]1N[C@@H](C(NC(=O)Cc2ccccc2)C(=O)NCc2ccccc2)SC1(C)C)CC1CCCCC1 (stereo partly specified) | 5.19 |  |  |
| CC(C)(C)NC(=O)[C@@H]1CCCN1CC(O)CNC(=O)[C@@H]1N[C@@H](C(NC(=O)Cc2ccccc2)C(=O)NCc2ccccc2)SC1(C)C (stereo partly specified) [listing 2 of 2 here] | 5.82 |  |  |
| CC(C)(C)NC(=O)[C@@H]1C[C@@H](O)CN1CC(O)CNC(=O)[C@@H]1N[C@@H](C(NC(=O)Cc2ccccc2)C(=O)NCc2ccccc2)SC1(C)C (stereo partly specified) | 5.29 |  |  |
| CC(C)(C)NC(=O)[C@@H]1C[C@@H]2CCCC[C@@H]2CN1C[C@@H](O)CNC(=O)[C@@H]1N[C@@H](C(NC(=O)Cc2ccccc2)C(N)=O)SC1(C)C (stereo partly specified) | 7.64 | 6.92 | 6.23 |
| CCO[C@@H]1C[C@@H](C(=O)NC(C)(C)C)N(C[C@H](O)CNC(=O)[C@@H]2N[C@@H](C(NC(=O)Cc3ccccc3)C(=O)NCc3ccccc3)SC2(C)C)C1 (stereo partly specified) | < 4.46 |  |  |
| CC(C)(C)NC(=O)[C@@H]1CCCCN1C[C@@H](O)CNC(=O)[C@@H]1N[C@@H](C(NC(=O)Cc2ccccc2)C(=O)NCc2ccccc2)SC1(C)C (stereo partly specified) | 5.19 |  |  |
| CC(C)(C)NC(=O)[C@@H]1C[C@@H]2CCCC[C@@H]2CN1C[C@H](O)CNC(=O)[C@@H]1N[C@@H](C(NC(=O)Cc2ccccc2)C(=O)NCc2ccccc2)SC1(C)C (stereo partly specified) | 6.80 |  | 4.87 |
| CC(C)(C)NC(=O)[C@@H]1CN(C(=O)Oc2ccccc2)CCN1C[C@@H](O)CNC(=O)[C@@H]1N[C@@H](C(NC(=O)Cc2ccccc2)C(=O)NCc2ccccc2)SC1(C)C (stereo partly specified) | 7.24 |  |  |
| CC(C)(C)NC(=O)[C@@H]1CCCCN1C[C@H](O)CNC(=O)[C@@H]1N[C@@H](C(NC(=O)Cc2ccccc2)C(=O)NCc2ccccc2)SC1(C)C (stereo partly specified) | < 5.66 |  |  |
| CCNC(=O)C(NC(=O)Cc1ccccc1)[C@@H]1N[C@@H](C(=O)NCC(O)CN(C)[C@@H](CC2CCCCC2)C(=O)NC(C)(C)C)C(C)(C)S1 (stereo partly specified) | 6.15 |  |  |
| CC(C)(C)NC(=O)[C@@H]1CSCN1CC(O)CNC(=O)[C@@H]1N[C@@H](C(NC(=O)Cc2ccccc2)C(=O)NCc2ccccc2)SC1(C)C (stereo partly specified) | 6.35 |  |  |
| CCNC(=O)C(NC(=O)Cc1ccccc1)[C@@H]1N[C@@H](C(=O)NCC(O)CN2C[C@H]3CCCC[C@H]3C[C@H]2C(=O)NC(C)(C)C)C(C)(C)S1 (stereo partly specified) | 7.51 | 6.13 | 6.37 |
| CC(C)(C)NC(=O)[C@@H]1C[C@@H]2CCCC[C@@H]2CN1C[C@@H](O)CNC(=O)[C@@H]1N[C@@H](C(NC(=O)Cc2ccccc2)C(=O)NCc2ccccc2)SC1(C)C (stereo partly specified) | 7.64 | 7.30 | 6.46 |
| CCCCCCCNC(=O)C(NC(=O)Cc1ccccc1)[C@@H]1N[C@@H](C(=O)NCC(O)CN2C[C@H]3CCCC[C@H]3C[C@H]2C(=O)NC(C)(C)C)C(C)(C)S1 (stereo partly specified) | 7.07 |  | < 4.00 |
| CC(C)(C)NC(=O)[C@@H]1C[C@H](OCc2ccccc2)CN1CC(O)CNC(=O)[C@@H]1N[C@@H](C(NC(=O)Cc2ccccc2)C(=O)NCc2ccccc2)SC1(C)C (stereo partly specified) | 6.19 |  |  |
| CC(C)(C)NC(=O)[C@@H]1C[C@@H]2CCCC[C@@H]2CN1CC(O)CNC(=O)[C@@H]1N[C@@H](C(NC(=O)Cc2ccccc2)C(=O)NCCNC(=O)OC(C)(C)C)SC1(C)C (stereo partly specified) | 6.80 | 7.00 | 7.28 |
| CC(C)(C)NC(=O)C1N(C[C@@H](O)CNC(=O)[C@@H]2N[C@@H](C(NC(=O)Cc3ccccc3)C(=O)NCc3ccccc3)SC2(C)C)C(C)(C)SC1(C)C (stereo partly specified) | 6.72 |  |  |
| CC1(C)S[C@H](C(NC(=O)Cc2ccccc2)C(=O)NCc2ccccc2)N[C@H]1C(=O)N[C@H](Cc1ccccc1)[C@H](O)CC(=O)NCc1ccccc1 (stereo partly specified) | 5.34 |  |  |
| CC(C)(C)NC(=O)[C@@H]1C[C@@H]2CCCC[C@@H]2CN1C[C@H](O)CNC(=O)[C@@H]1N[C@@H](C(NC(=O)Cc2ccccc2)C(=O)NCC2CCCCC2)SC1(C)C (stereo partly specified) | 6.52 |  |  |
| CCNC(=O)C(NC(=O)Cc1ccccc1)[C@@H]1N[C@@H](C(=O)NCCNC(=O)[C@@H]2N[C@@H]([C@H](NC(=O)Cc3ccccc3)C(=O)NCC)SC2(C)C)C(C)(C)S1 (stereo partly specified) | 8.30 |  | 5.27 |
| CC(C)(C)NC(=O)C1N(C[C@H](O)CNC(=O)[C@@H]2N[C@@H](C(NC(=O)Cc3ccccc3)C(=O)NCc3ccccc3)SC2(C)C)C(C)(C)SC1(C)C (stereo partly specified) | 7.03 |  |  |
| CC(C)(C)NC(=O)[C@H]1N(CC(O)CNC(=O)[C@@H]2N[C@@H]([C@H](NC(=O)Cc3ccccc3)C(=O)NCc3ccccc3)SC2(C)C)CSC1(C)C (stereo partly specified) | 7.68 |  |  |
| COC(=O)C(NC(=O)Cc1ccccc1)[C@@H]1N[C@@H](C(=O)NC[C@H](O)CN2C[C@H]3CCCC[C@H]3C[C@H]2C(=O)NC(C)(C)C)C(C)(C)S1 (stereo partly specified) | 7.27 |  | 5.41 |
